Experimental data taken from patent US8314253B2, “Bridged tetrahydronaphthalene derivatives” (Actelion Pharmaceuticals Ltd., priority 2008, dated 2012).

Tested on: human Cav3.1 Cav3.2 or Cav3.3 channel
Experiment: In vitro assay T channel (FLIPR, Ca2+-induced fluorescence)
Assay type: cell-based
Details: HEK293 cells expressing human Cav3.1 Cav3.2 or Cav3.3; 10 mM Ca2+; determined up to 10 μM; read-out: T channel antagonistic activity IC50
Procedure: Human embryonic kidney (HEK293) cells expressing the human Cav3.1 Cav3.2 or Cav3.3 channel, respectively, are grown in culture medium (DMEM containing 10% heat-inactivated fetal calf serum (FCS), 100 U/ml penicillin, 100 μg/ml streptomycin and 1 mg/ml G418). The cells are seeded at 20.000 cells/well into 384-well black clear bottom sterile plates (poly-L-lysine-coated, Becton Dickinson). The seeded plates are incubated overnight at 37° C. in 5% CO2. The Ca^2+ solution is prepared as 100 mM stock solution in 100 mM tetraethylammoniumchloride (TEA-chloride), 50 mM HEPES, 2.5 mM CaCl2, 5 mM KCl, 1 mM MgCl2, adjusted to pH 7.2 with TEA-hydroxide, for use in the assay at a final concentration of 10 mM. […] Fluorescence is measured for each well at 2 second intervals for 8 minutes, and the area under the curve of each fluorescence peak is compared to the area of the fluorescence peak induced by 10 mM Ca^2+ with vehicle in place of antagonist.

Row | IC50 [µM] | Structure (SMILES)
1 | 0.191 | COc1ccc(C)c2[nH]c(CCCN(C)CCC3(OC(=O)C(C)C)CC4CCCC3c3ccccc34)nc12 [Example 14A, Isobutyric acid (1S,8S,12S)-12-(2-{[3-(4-Methoxy-7-methyl-1H-benzoimidazol-2-yl)-propyl]-methyl-amino}-ethyl)-tricyclo[6.3.2.0^2,7]trideca-2,4,6-trien-12-yl ester or isobutyric acid (1R,8R,12R)-12-(2-{[3-(4-methoxy-7-methyl-1H-benzoimidazol-2-yl)-propyl]-methyl-amino}-ethyl)-tricyclo[6.3.2.0^2,7]trideca-2,4,6-trien-12-yl ester]
2 | 1.58 | CN(CCCc1nc2ccccc2[nH]1)CC[C@]1(O)C[C@H]2CCC[C@@H]1c1ccccc12 (relative stereo) [Example 10, rac-(1R*,8R*,12R*)-12-(2-{[3-(1H-Benzoimidazol-2-yl)-propyl]-methyl-amino}-ethyl)-tricyclo[6.3.2.0^2,7]trideca-2,4,6-trien-12-ol]
3 | 1.31 | CC(C)C(=O)O[C@@]1(CCN(C)CCCc2nc3ccccc3[nH]2)C[C@H]2CCC[C@@H]1c1ccccc12 (relative stereo) [Example 10B, rac-Isobutyric acid (1R*,8R*,12R*)-12-(2-{[3-(1H-benzoimidazol-2-yl)-propyl]-methyl-amino}-ethyl)-tricyclo[6.3.2.0^2,7]trideca-2,4,6-trien-12-yl ester]
4 | 2.85 | CN(CCCc1nc2ccccc2[nH]1)CC[C@]1(O)C[C@H]2CC[C@@H]1c1ccccc12 (relative stereo) [Example 1, rac-(1R*,8R*,9R*)-9-(2-{[3-(1H-Benzoimidazol-2-yl)-propyl]-methyl-amino}-ethyl)-tricyclo[6.2.2.0^2,7]dodeca-2,4,6-trien-9-ol]
5 | 2.9 | CN(CCCc1nc2ccccc2[nH]1)CCC1(O)CC2CCC1c1ccccc12 (single isomer, unassigned) [Example 2, (1S,8S,9S)-9-(2-{[3-(1H-Benzoimidazol-2-yl)-propyl]-methyl-amino}-ethyl)-tricyclo[6.2.2.0^2,7]dodeca-2,4,6-trien-9-ol or (1R,8R,9R)-9-(2-{[3-(1H-benzoimidazol-2-yl)-propyl]-methyl-amino}-ethyl)-tricyclo[6.2.2.0^2,7]dodeca-2,4,6-trien-9-ol]
6 | 1.85 | CN(CCCc1nc2ccccc2[nH]1)CC[C@]1(O)C[C@H]2CC[C@@H]1c1cc(F)c(F)cc12 (relative stereo) [Example 9, rac-(1R*,8R*,9R*)-9-(2-{[3-(1H-Benzoimidazol-2-yl)-propyl]-methyl-amino}-ethyl)-4,5-difluoro-tricyclo[6.2.2.0^2,7]dodeca-2,4,6-trien-9-ol]
7 | 0.736 | COc1ccc(C)c2[nH]c(CCCN(C)CCC3(O)CC4CCCC3c3ccccc34)nc12 (single isomer, unassigned) [Example 14, (1S,8S,12S)-12-(2-{[3-(4-Methoxy-7-methyl-1H-benzoimidazol-2-yl)-propyl]-methyl-amino}-ethyl)-tricyclo[6.3.2.0^2,7]trideca-2,4,6-trien-12-ol or (1R,8R,12R)-12-(2-{[3-(4-methoxy-7-methyl-1H-benzoimidazol-2-yl)-propyl]-methyl-amino}-ethyl)-tricyclo[6.3.2.0^2,7]trideca-2,4,6-trien-12-ol]

Row | Structure (SMILES) | IC50 [µM]
8 | O[C@@]1(CCN2CCC(c3ccccc3)(c3nc4ccccc4[nH]3)CC2)C[C@H]2CC[C@@H]1c1ccccc12 (relative stereo) [Example 8, rac-(1R*,8R*,9R*)-9-{2-[4-(1H-Benzoimidazol-2-yl)-4-phenyl-piperidin-1-yl]-ethyl}-tricyclo[6.2.2.0^2,7]dodeca-2,4,6-trien-9-ol] | 0.953
9 | CC(C)C(=O)O[C@@]1(CCN2CCC(c3ccccc3)(c3nc4ccccc4[nH]3)CC2)C[C@H]2CC[C@@H]1c1ccccc12 (relative stereo) [Example 8A, rac-Isobutyric acid (1R*,8R*,9R*)-9-{2-[4-(1H-benzoimidazol-2-yl)-4-phenyl-piperidin-1-yl]-ethyl}-tricyclo[6.2.2.0^2,7]dodeca-2,4,6-trien-9-yl ester] | 6.1
